US10405547B2, “Substituted cyclic amides as herbicides” (FMC Corporation, priority 2015, dated 2019)

Legend:
Assay type in all cases: in vivo
[1] = system: blackgrass (Alopecurus myosuroides); assay: Test A postemergence, blackgrass; details: 0 to 100 scale (0 no effect, 100 complete control)
Procedure, shortened: (§1)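 Visual injury on a 0 to 100 scale, about 10 days post-spray in the greenhouse. Postemergence plants measured 2–10 cm at one to two leaves; preemergence pots received a directed soil spray. Soil was a loam–sand blend.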

[2] = system: barnyardgrass (Echinochloa crus-galli); assay: Test B flooded paddy test, barnyardgrass; details: 250 g ai/ha, applied to paddy water, visual rating after 13 to 15 days, scale 0 (no effect) to 100 (complete control)
Procedure, shortened: (§2)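 Under a constant 3 cm flood, test compounds went directly into the paddy water. Following 13 to 15 days of greenhouse growth, treated species and controls were compared by eye.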

[3] = system: pigweed (Amaranthus retroflexus); assay: Test A preemergence, pigweed; details: 0 to 100 scale (0 no effect, 100 complete control)
Procedure, shortened: as §1

[4] = system: ryegrass, Italian (Lolium multiflorum); assay: Test A preemergence, Italian ryegrass; details: 0 to 100 scale (0 no effect, 100 complete control)
Procedure, shortened: as §1

[5] = system: foxtail, giant (Setaria faberii); assay: Test A preemergence, giant foxtail; details: 0 to 100 scale (0 no effect, 100 complete control)
Procedure, shortened: as §1

[6] = system: galium (catchweed bedstraw, Galium aparine); assay: Test A postemergence, galium; details: 0 to 100 scale (0 no effect, 100 complete control)
Procedure, shortened: as §1

[7] = system: ducksalad (Heteranthera limosa); assay: Test B flooded paddy test, ducksalad; details: 250 g ai/ha, applied to paddy water, visual rating after 13 to 15 days, scale 0 (no effect) to 100 (complete control)
Procedure, shortened: as §2

[8] = system: ragweed (common ragweed, Ambrosia elatior); assay: Test A preemergence, ragweed; details: 0 to 100 scale (0 no effect, 100 complete control)
Procedure, shortened: as §1

[9] = system: ragweed (common ragweed, Ambrosia elatior); assay: Test A postemergence, ragweed; details: 0 to 100 scale (0 no effect, 100 complete control)
Procedure, shortened: as §1

kochia (Kochia scoparia) [10] = assay: Test A postemergence, kochia; details: 0 to 100 scale (0 no effect, 100 complete control)
Procedure, shortened: as §1

[11] = system: wheat (Triticum aestivum); assay: Test A postemergence, wheat; details: 0 to 100 scale (0 no effect, 100 complete control)
Procedure, shortened: as §1

corn (Zea mays) = assay: Test A postemergence, corn; details: 0 to 100 scale (0 no effect, 100 complete control)
Procedure, shortened: as §1

[12] = system: ryegrass, Italian (Lolium multiflorum); assay: Test A postemergence, Italian ryegrass; details: 0 to 100 scale (0 no effect, 100 complete control)
Procedure, shortened: as §1

[13] = system: pigweed (Amaranthus retroflexus); assay: Test A postemergence, pigweed; details: 0 to 100 scale (0 no effect, 100 complete control)
Procedure, shortened: as §1

[14] = system: barnyardgrass (Echinochloa crus-galli); assay: Test A postemergence, barnyardgrass; details: 0 to 100 scale (0 no effect, 100 complete control)
Procedure, shortened: as §1

[15] = system: sedge, umbrella (small-flower umbrella sedge, Cyperus difformis); assay: Test B flooded paddy test, umbrella sedge; details: 250 g ai/ha, applied to paddy water, visual rating after 13 to 15 days, scale 0 (no effect) to 100 (complete control)
Procedure, shortened: as §2

kochia (Kochia scoparia) [16] = assay: Test A preemergence, kochia; details: 0 to 100 scale (0 no effect, 100 complete control)
Procedure, shortened: as §1

[17] = system: barnyardgrass (Echinochloa crus-galli); assay: Test A preemergence, barnyardgrass; details: 0 to 100 scale (0 no effect, 100 complete control)
Procedure, shortened: as §1

[18] = system: foxtail, giant (Setaria faberii); assay: Test A postemergence, giant foxtail; details: 0 to 100 scale (0 no effect, 100 complete control)
Procedure, shortened: as §1

rice (Oryza sativa) = assay: Test B flooded paddy test, rice; details: 250 g ai/ha, applied to paddy water, visual rating after 13 to 15 days, scale 0 (no effect) to 100 (complete control)
Procedure, shortened: as §2

[19] = 125 g ai/ha, visual injury, approximately 10 days

SMILES | Plant response rating, Blackgrass ([1]; 31 g ai/ha) | Plant response rating, Blackgrass [1, 19] | Plant response rating, Barnyardgrass (Flood) [2] | Plant response rating, Pigweed ([3]; 31 g ai/ha) | Plant response rating, Pigweed ([3]; 125 g ai/ha) | Plant response rating, Ryegrass, Italian ([4]; 31 g ai/ha) | Plant response rating, Ryegrass, Italian ([4]; 125 g ai/ha) | Plant response rating, Foxtail, Giant ([5]; 31 g ai/ha) | Plant response rating, Foxtail, Giant ([5]; 125 g ai/ha) | Plant response rating, Galium ([6]; 31 g ai/ha) | Plant response rating, Galium [6, 19] | Plant response rating, Ducksalad (Flood) [7] | Plant response rating, Ragweed ([8]; 31 g ai/ha) | Plant response rating, Ragweed ([8]; 125 g ai/ha) | Plant response rating, Ragweed ([9]; 31 g ai/ha) | Plant response rating, Ragweed [9, 19] | Plant response rating, Kochia (kochia (Kochia scoparia) [10]; 31 g ai/ha) | Plant response rating, Kochia (kochia (Kochia scoparia) [10]; [19]) | Plant response rating, Wheat ([11]; 31 g ai/ha) | Plant response rating, Wheat [11, 19] | further results
CN1CC(c2cccc(Oc3ccc(F)cn3)c2)C(C(=O)Nc2cccc(C#N)c2F)C1=O (single isomer, unassigned) [Compound 88] | 0 | 0 | 0 | 0 | 20 | 0 | 20 | 30 | 90 | 30 | 40 | 50 | 0 | 0 | 0 | 0 | 0 | 30 | 0 | 60 | Plant response rating, Corn (corn (Zea mays); 31 g ai/ha): 0; Plant response rating, Corn (corn (Zea mays); [19]): 20; Plant response rating, Ryegrass, Italian ([12]; 31 g ai/ha): 0; Plant response rating, Ryegrass, Italian [12, 19]: 0; Plant response rating, Pigweed ([13]; 31 g ai/ha): 0; Plant response rating, Pigweed [13, 19]: 20; Plant response rating, Barnyardgrass ([14]; 31 g ai/ha): 30; Plant response rating, Barnyardgrass [14, 19]: 80; Plant response rating, Sedge, Umbrella (Flood) [15]: 0; Plant response rating, Kochia (kochia (Kochia scoparia) [16]; 31 g ai/ha): 0; Plant response rating, Kochia (kochia (Kochia scoparia) [16]; 125 g ai/ha): 30; Plant response rating, Barnyardgrass ([17]; 31 g ai/ha): 0; Plant response rating, Barnyardgrass ([17]; 125 g ai/ha): 30; Plant response rating, Foxtail, Giant ([18]; 31 g ai/ha): 30; Plant response rating, Foxtail, Giant [18, 19]: 70; Plant response rating, Rice (Flood) (rice (Oryza sativa)): 0
CN1CC(c2cccc(Oc3ccc(F)cn3)c2)C(C(=O)Nc2cccc(F)c2C#N)C1=O (single isomer, unassigned) [Compound 89] | 0 | 20 | 0 | 0 | 60 | 0 | 40 | 40 | 90 | 30 | 40 | 70 | 0 | 0 | 0 | 0 | 0 | 0 | 0 | 0 | Plant response rating, Corn (corn (Zea mays); 31 g ai/ha): 0; Plant response rating, Corn (corn (Zea mays); [19]): 0; Plant response rating, Ryegrass, Italian ([12]; 31 g ai/ha): 0; Plant response rating, Ryegrass, Italian [12, 19]: 20; Plant response rating, Pigweed ([13]; 31 g ai/ha): 0; Plant response rating, Pigweed [13, 19]: 50; Plant response rating, Barnyardgrass ([14]; 31 g ai/ha): 30; Plant response rating, Barnyardgrass [14, 19]: 70; Plant response rating, Sedge, Umbrella (Flood) [15]: 0; Plant response rating, Kochia (kochia (Kochia scoparia) [16]; 31 g ai/ha): 0; Plant response rating, Kochia (kochia (Kochia scoparia) [16]; 125 g ai/ha): 0; Plant response rating, Barnyardgrass ([17]; 31 g ai/ha): 30; Plant response rating, Barnyardgrass ([17]; 125 g ai/ha): 70; Plant response rating, Foxtail, Giant ([18]; 31 g ai/ha): 30; Plant response rating, Foxtail, Giant [18, 19]: 70; Plant response rating, Rice (Flood) (rice (Oryza sativa)): 0
O=C1NCC(c2cccc(CN3CCOCC3)c2)C1C(=O)Nc1cccc(F)c1F (single isomer, unassigned) [Compound 90] | 0 | 0 | 0 | 0 | 0 | 0 | 0 | 0 | 0 | 0 | 0 | 0 | 0 | 0 | 0 | 0 | 0 | 0 | 0 | 0 | Plant response rating, Corn (corn (Zea mays); 31 g ai/ha): 0; Plant response rating, Corn (corn (Zea mays); [19]): 0; Plant response rating, Ryegrass, Italian ([12]; 31 g ai/ha): 0; Plant response rating, Ryegrass, Italian [12, 19]: 0; Plant response rating, Pigweed ([13]; 31 g ai/ha): 0; Plant response rating, Pigweed [13, 19]: 0; Plant response rating, Barnyardgrass ([14]; 31 g ai/ha): 0; Plant response rating, Barnyardgrass [14, 19]: 0; Plant response rating, Sedge, Umbrella (Flood) [15]: 0; Plant response rating, Kochia (kochia (Kochia scoparia) [16]; 31 g ai/ha): 0; Plant response rating, Kochia (kochia (Kochia scoparia) [16]; 125 g ai/ha): 0; Plant response rating, Barnyardgrass ([17]; 31 g ai/ha): 0; Plant response rating, Barnyardgrass ([17]; 125 g ai/ha): 0; Plant response rating, Foxtail, Giant ([18]; 31 g ai/ha): 0; Plant response rating, Foxtail, Giant [18, 19]: 0; Plant response rating, Rice (Flood) (rice (Oryza sativa)): 0
